Laboratory results published in patent US20200216417A1, “INHIBITORS OF FIBROBLAST ACTIVATION PROTEIN” (Praxis Biotech LLC, priority 2019, published 2020).
Like-named read-outs stand apart in the source and are kept apart here.

Key:
[1] = target: T1, recombinant human PREP (rhPREP) (Homo sapiens, UniProt P48147); experiment: PREP enzymatic activity assay, Z-Gly-Pro-AMC; assay type: biochemical
T1 sequence (P48147 1-710): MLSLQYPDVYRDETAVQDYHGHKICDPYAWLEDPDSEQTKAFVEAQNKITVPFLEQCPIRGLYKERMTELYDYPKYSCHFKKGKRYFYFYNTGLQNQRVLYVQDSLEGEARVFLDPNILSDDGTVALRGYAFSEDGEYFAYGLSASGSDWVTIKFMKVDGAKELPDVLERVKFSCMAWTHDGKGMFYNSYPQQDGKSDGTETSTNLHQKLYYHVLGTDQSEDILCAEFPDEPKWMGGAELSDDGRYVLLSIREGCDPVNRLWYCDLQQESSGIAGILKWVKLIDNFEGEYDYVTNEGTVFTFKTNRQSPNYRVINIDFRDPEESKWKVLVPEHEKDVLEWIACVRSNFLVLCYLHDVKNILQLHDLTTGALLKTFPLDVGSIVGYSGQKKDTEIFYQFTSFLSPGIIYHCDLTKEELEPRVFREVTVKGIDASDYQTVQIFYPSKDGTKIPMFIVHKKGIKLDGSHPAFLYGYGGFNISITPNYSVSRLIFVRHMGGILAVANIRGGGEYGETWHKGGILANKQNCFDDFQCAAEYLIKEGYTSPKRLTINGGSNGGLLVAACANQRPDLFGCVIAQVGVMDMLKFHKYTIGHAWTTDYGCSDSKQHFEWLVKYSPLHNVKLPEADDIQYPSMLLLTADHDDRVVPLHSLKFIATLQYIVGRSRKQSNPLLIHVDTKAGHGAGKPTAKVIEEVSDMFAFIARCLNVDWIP

[2] = target: T2, DPPIV (Mus musculus, UniProt P28843); experiment: DPPIV enzymatic activity in mouse plasma (H-Gly-Pro-AMC); assay type: biochemical, C57BL/6 mouse; conditions: H-Gly-Pro-AMC substrate
T2 construct: from tissue; host or cells: C57BL/6 mouse plasma (EDTA)
T2 sequence (P28843 37-760 limits assumed): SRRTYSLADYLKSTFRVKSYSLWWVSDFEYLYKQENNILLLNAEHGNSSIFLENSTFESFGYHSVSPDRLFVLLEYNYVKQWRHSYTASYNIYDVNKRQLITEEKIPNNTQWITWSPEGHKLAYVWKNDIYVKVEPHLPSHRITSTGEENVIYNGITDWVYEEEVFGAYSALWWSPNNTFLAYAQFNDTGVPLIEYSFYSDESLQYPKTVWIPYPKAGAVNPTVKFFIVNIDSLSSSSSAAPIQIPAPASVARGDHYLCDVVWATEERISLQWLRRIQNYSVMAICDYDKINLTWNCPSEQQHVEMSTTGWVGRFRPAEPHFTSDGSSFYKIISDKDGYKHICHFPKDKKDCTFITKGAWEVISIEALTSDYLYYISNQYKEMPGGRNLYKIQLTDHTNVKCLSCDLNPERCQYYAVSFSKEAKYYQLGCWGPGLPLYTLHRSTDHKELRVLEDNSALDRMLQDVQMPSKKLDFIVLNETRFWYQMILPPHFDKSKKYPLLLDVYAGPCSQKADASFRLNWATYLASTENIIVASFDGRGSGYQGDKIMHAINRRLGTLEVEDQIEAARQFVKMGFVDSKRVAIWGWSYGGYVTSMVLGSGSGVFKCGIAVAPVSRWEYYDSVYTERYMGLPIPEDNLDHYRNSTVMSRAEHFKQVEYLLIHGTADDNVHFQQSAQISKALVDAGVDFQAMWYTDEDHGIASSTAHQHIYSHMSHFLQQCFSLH
Method: Approximately 500 μL of whole blood from one C57BL/6 mouse was harvested into BD Microtainer® tubes (K2) EDTA (#365974, Becton Dickinson and Co.) via terminal cardiac puncture. The blood sample was immediately centrifuged at approximately 9000 g at 4° C. for 5 minutes. Plasma was separated and stored at −80° C. in aliquots of 300 μL. To assay baseline DPPIV enzymatic exopeptidase activity, 5 μL of thawed, mouse plasma was diluted (1:5) in buffer (100 mM Tris-HCl, 400 mM NaCl, 50 mM salicylic acid, 1 mM EDTA, pH 7.5) and mixed with 35 μL of the same buffer before being pre-incubated with different concentrations of 10 μL of test compounds or DMSO vehicle for 15 minutes at 37° C. in 96-well black plates (Nunc, #237108). After pre-incubation, 50 μL of 200 μM dipeptide substrate H-Gly-Pro-AMC (Bachem, # L-1225) was added to the mixture. The assay was performed for 1 hour at 37° C. 7-Amino-4-Methylcoumarin (AMC) release was detected measuring fluorescence at an excitation wavelength of 360 nm and an emission wavelength of 460 nm using a Multifunction Microplate Reader (Synergy 4, Biotek). All measurements were carried out at least in duplicate.

[3] = target: T3, recombinant human DPPIV (rhDPPIV) (Homo sapiens, UniProt P27487); experiment: DPPIV enzymatic activity assay, H-Gly-Pro-pNA; assay type: biochemical
T3 construct: purchased R&S system (so in the source)
T3 sequence (P27487 whole entry): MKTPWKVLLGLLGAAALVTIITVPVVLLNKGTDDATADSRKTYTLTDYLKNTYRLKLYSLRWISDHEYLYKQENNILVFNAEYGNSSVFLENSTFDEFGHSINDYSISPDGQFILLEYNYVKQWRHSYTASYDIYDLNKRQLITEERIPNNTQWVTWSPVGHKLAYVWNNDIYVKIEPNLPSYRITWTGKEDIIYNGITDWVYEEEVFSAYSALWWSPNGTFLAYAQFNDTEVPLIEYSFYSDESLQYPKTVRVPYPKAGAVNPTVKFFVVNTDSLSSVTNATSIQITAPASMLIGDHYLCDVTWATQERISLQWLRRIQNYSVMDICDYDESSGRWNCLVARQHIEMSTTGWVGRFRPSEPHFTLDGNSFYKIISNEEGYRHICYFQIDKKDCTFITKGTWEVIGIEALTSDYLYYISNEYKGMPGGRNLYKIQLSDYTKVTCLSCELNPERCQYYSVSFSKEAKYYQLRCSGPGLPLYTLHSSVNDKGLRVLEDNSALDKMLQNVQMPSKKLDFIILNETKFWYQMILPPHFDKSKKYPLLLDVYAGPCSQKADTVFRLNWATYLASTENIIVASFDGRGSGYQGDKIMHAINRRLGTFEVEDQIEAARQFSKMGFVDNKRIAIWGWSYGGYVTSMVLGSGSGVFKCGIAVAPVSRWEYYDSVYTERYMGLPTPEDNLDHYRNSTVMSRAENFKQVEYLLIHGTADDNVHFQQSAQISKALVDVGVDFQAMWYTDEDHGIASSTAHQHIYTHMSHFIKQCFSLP

[4] = target: T4, recombinant human DPP9 (rhDPP9) (Homo sapiens, UniProt Q86TI2); experiment: DPP9 enzymatic activity assay, 40 ng rhDPP9, HEPES buffer; assay type: biochemical; conditions: Table 3A
T4 construct: purchased R&S system / R&D systems (both sic) 5419-SE
T4 sequence (Q86TI2 whole entry): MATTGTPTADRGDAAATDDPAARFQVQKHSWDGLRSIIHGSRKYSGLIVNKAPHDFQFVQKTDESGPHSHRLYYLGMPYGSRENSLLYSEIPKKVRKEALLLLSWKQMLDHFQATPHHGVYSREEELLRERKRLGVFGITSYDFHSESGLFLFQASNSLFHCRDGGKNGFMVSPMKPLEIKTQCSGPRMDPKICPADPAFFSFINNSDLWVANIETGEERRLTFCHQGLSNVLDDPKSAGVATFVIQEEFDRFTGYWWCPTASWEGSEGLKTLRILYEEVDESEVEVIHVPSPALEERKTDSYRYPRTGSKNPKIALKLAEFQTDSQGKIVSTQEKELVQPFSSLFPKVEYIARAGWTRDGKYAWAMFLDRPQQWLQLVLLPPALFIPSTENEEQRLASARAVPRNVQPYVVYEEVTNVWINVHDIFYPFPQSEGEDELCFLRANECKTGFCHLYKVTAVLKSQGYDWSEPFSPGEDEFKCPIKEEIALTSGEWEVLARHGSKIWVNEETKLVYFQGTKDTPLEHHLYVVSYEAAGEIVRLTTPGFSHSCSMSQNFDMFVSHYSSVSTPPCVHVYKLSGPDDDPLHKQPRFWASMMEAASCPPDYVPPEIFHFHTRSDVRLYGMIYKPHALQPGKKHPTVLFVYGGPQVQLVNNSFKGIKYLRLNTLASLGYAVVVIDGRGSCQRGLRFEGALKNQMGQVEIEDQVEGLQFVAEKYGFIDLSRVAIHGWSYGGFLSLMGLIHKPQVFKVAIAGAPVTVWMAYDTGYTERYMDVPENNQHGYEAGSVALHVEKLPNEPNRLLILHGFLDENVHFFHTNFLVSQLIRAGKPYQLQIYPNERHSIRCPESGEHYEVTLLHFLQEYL

[5] = target: T4, recombinant human DPP9 (rhDPP9); experiment: DPP9 inhibition assay, 10 ng rhDPP9, Tris-HCl/BSA buffer; assay type: biochemical; conditions: Table 3B
[6] = target: T5, recombinant human FAPα (rhFAPα) (Homo sapiens, UniProt Q12884); experiment: FAPα enzymatic exopeptidase (dipeptidase) activity assay, Z-Gly-Pro-AMC; assay type: biochemical
T5 construct: purchased R&S system (so in the source)
T5 sequence (Q12884 1-760): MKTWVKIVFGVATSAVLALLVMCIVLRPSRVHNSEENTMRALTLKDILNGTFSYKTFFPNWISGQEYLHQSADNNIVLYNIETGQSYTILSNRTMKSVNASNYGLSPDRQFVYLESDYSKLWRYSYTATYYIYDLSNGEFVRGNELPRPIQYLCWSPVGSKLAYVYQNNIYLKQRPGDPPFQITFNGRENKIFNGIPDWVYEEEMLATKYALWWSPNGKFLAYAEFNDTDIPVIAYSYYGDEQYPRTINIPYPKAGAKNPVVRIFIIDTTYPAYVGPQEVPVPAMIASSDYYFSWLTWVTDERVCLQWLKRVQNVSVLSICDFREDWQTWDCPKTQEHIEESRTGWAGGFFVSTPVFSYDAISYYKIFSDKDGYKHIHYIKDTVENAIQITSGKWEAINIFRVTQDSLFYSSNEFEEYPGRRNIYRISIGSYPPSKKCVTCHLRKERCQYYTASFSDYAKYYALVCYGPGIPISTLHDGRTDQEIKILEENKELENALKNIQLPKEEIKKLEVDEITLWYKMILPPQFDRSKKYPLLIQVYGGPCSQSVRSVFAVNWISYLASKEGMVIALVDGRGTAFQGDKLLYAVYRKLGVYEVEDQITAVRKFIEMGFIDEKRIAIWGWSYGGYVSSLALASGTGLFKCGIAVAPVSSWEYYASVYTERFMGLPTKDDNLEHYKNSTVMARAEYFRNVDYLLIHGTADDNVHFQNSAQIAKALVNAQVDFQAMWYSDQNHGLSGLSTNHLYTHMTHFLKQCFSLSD

[7] = exopeptidase inhibition at 1 μM test compound, Table 2, read-out: rhFAPα (% exo inh @ 1 μM)
[8] = exopeptidase inhibition at 1 μM test compound, Table 3B, read-out: rhFAPα % exo inh @ 1 μM
[9] = exopeptidase, Table 2, read-out: rhFAPα (exo IC50)
[10] = exopeptidase, Table 3A, read-out: rhFAPα (exo IC50)
[11] = read-out: rhFAPα % exo inh @ 1 μM
[12] = read-out: rhFAPα (% exo inh @ 1 μM)

SMILES	IC50 ([1]; Table 3A) [µM]	IC50 ([1]; Table 3B) [µM]	IC50 [2] [µM]	IC50 ([3]; Table 3A) [µM]	IC50 ([3]; Table 3B) [µM]	IC50 [4] [µM]	IC50 [5] [µM]	IC50 ([6]; Table 3B, read-out: rhFAP IC50) [µM]	inhibition at 1 µM [6, 7] [%]	inhibition at 1 µM [6, 8] [%]	IC50 [6, 9] [µM]	IC50 [6, 10] [µM]	inhibition at 1 µM [6, 11] [%]	inhibition at 1 µM [6, 12] [%]
COc1ccc(C(=O)Nc2cnccc2C(=O)NCC(=O)N2CC(F)(F)C[C@H]2C#N)cc1 [Compound 3, (S)—N-(2-(2-cyano-4,4-difluoropyrrolidin-1-yl)-2-oxoethyl)-3-(4-methoxybenzamido)isonicotinamide]	> 10	> 10	1 to 10	1 to 10	1 to 10	1 to 10	1 to 10	< 1	–	–	< 1	< 1	> 50	> 50
N#C[C@@H]1CC(F)(F)CN1C(=O)CNC(=O)c1ccncc1NC(=O)COc1ccc(Cl)c(F)c1 [Compound 5, (S)-3-(2-(4-chloro-3-fluorophenoxy)acetamido)-N-(2-(2-cyano-4,4-difluoropyrrolidin-1-yl)-2-oxoethyl)isonicotinamide]	> 10	> 10	< 1	1 to 10	1 to 10	1 to 10	1 to 10	< 1	> 50	> 50	< 1	< 1	–	–
N#C[C@@H]1CC(F)(F)CN1C(=O)CNC(=O)c1ccncc1/C=C/c1ccc(Cl)cc1 [Compound 9, (S,E)-3-(4-chlorostyryl)-N-(2-(2-cyano-4,4-difluoropyrrolidin-1-yl)-2-oxoethyl)isonicotinamide]	> 10	> 10	< 10	> 10	> 10	< 1	< 1	< 1	–	–	< 1	< 1	> 50	> 50

Continued, in another order:

IC50 ([1]; Table 3A) [µM]	IC50 ([1]; Table 3B) [µM]	IC50 [2] [µM]	IC50 ([3]; Table 3A) [µM]	IC50 ([3]; Table 3B) [µM]	IC50 [4] [µM]	IC50 [5] [µM]	IC50 ([6]; Table 3B, read-out: rhFAP IC50) [µM]	inhibition at 1 µM [6, 7] [%]	inhibition at 1 µM [6, 8] [%]	IC50 [6, 9] [µM]	IC50 [6, 10] [µM]	SMILES	inhibition at 1 µM [6, 11] [%]	inhibition at 1 µM [6, 12] [%]
> 10	> 10	< 10	> 10	> 10	> 10	> 10	< 1	> 50	> 50	< 1	< 1	N#C[C@@H]1CC(F)(F)CN1C(=O)CNC(=O)c1ccncc1NCc1ccc(F)cc1 [Compound 2, (S)—N-(2-(2-cyano-4,4-difluoropyrrolidin-1-yl)-2-oxoethyl)-3-((4-fluorobenzyl)amino)isonicotinamide]	–	–
1 to 10	1 to 10	< 10	> 10	> 10	1 to 10	1 to 10	< 1	> 50	> 50	< 1	< 1	N#C[C@@H]1CC(F)(F)CN1C(=O)CNC(=O)c1ccncc1Cc1ccccc1F [Compound 7, (S)—N-(2-(2-cyano-4,4-difluoropyrrolidin-1-yl)-2-oxoethyl)-3-(2-fluorobenzyl)isonicotinamide]	–	–
> 10	> 10	< 10	> 10	> 10	1 to 10	1 to 10	< 1	> 50	> 50	< 1	< 1	N#C[C@@H]1CC(F)(F)CN1C(=O)CNC(=O)c1ccncc1Cc1ccc(F)cc1 [Compound 8, (S)—N-(2-(2-cyano-4,4-difluoropyrrolidin-1-yl)-2-oxoethyl)-3-(4-fluorobenzyl)isonicotinamide]	–	–
